The target in experiment [1] is JBP1 (Homo sapiens, UniProt O14744). The experiment can be described thus: In vitro methylation of myelin basic protein by JBP1, inhibition. Particulars: [3H]AdoMet methyl donor, 30° C., 30 minutes, FIG. 2C. Format: biochemical. As for the experimental part: (§1) In Vitro Methylation. Immunoprecipitated Flag-Hs17p was used to methylate histones and myelin basic protein with minor modifications of the method previously described. Each reaction contained 10 ig of substrate proteins (histones, MBP and cytochrome c). [^3H]AdoMet was added to a final concentration of 55 iCi/ml. The reaction contained 150 mM NaCl, 50 mM Tris.HCl (pH 8.0), 1% NP-40, 0.8 mM PMSF, 3 μg/ml antipain, 10 ig/ml benzamidine (10^4 kallikrein-inactivating units/ml) plus 1 μg/ml each of leupeptin, chymostatin and pepstatin. The 50 μl reactions were incubated at 30° C. for 30 minutes.
(§2) FIG. 2 illustrates the UV crosslinking of [^3H]AdoMet to Hs17p. […] After UV crosslinking, the 7.5% gel was dried and exposed to Biomax MR film for 15 days at −70° C. FIG. 2B show the in vitro methylation of protein substrates by Hs17p. Methylation reactions were done as described in “Experimental Procedures.” Each lane contained 10 μg at substrate protein. The position of the labeled bands coincided exactly with the location of the substrate proteins or the Coomassie blue-stained gel (not shown). The dried 15% gel was exposed to Biomax MR film for 21 days at −70° C. […] Protein sizes were calculated by the migration of broad range protein standards (BioRad).

The target of experiment [2] is T1, Hs17p (Saccharomyces cerevisiae, UniProt P38274).
T1 construct: made in house; host or cells: S. cerevisiae hsl7-delta strain SPY103 (pGALFLAGHSL7, GAL1 promoter); anti-Flag immunoprecipitate
T1 sequence (P38274 1-827): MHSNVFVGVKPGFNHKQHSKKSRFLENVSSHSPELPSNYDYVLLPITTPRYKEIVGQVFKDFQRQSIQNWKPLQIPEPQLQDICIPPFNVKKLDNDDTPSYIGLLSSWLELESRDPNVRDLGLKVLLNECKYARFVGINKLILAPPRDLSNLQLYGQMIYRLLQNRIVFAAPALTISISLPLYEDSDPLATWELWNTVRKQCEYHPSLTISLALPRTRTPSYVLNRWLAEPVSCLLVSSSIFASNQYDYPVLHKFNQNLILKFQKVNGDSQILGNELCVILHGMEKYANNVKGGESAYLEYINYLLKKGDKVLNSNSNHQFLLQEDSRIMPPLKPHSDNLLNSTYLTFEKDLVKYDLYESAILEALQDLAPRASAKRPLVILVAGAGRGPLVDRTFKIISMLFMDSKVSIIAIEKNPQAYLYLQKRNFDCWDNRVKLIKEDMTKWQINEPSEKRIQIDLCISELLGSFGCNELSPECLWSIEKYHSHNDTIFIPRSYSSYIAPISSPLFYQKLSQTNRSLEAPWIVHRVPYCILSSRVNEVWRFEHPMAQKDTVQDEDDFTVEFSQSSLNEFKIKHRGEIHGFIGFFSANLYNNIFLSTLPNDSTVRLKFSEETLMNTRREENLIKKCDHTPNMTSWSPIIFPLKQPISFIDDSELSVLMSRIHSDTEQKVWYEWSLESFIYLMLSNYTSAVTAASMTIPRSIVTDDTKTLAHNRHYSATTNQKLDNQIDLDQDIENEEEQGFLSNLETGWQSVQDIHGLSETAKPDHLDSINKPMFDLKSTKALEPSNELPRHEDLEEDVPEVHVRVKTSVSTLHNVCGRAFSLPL
The experiment can be described thus: In vitro methylation of myelin basic protein by Hs17p, inhibition. Format: biochemical. To be noted: [3H]AdoMet methyl donor, 30° C., 30 minutes, FIG. 2C. Here is the method: as §1, §2

The subject of experiment [3] is calf histones, bovine myelin basic protein and bovine cytochrome c. The experiment can be described thus: In vitro methylation of protein substrates. Type of experiment: biochemical. Particulars: substrates H2A, H4 and myelin basic protein, 10 μg, FIG. 2B. As for the experimental part:
as §1, §2

Experiment [4] can be described thus: UV crosslinking of [3H]AdoMet. Format: binding. To be noted: immunoprecipitated protein, FIG. 2A. Here is the method:
UV Crosslinking. Crosslinking of [^3H]AdoMet to Hs17p and JBP1 was performed as described.
FIG. 2 illustrates the UV crosslinking of [^3H]AdoMet to Hs17p. […] After UV crosslinking, the 7.5% gel was dried and exposed to Biomax MR film for 15 days at −70° C. FIG. 2B show the in vitro methylation of protein substrates by Hs17p. Methylation reactions were done as described in “Experimental Procedures.” Each lane contained 10 μg at substrate protein. The position of the labeled bands coincided exactly with the location of the substrate proteins or the Coomassie blue-stained gel (not shown). The dried 15% gel was exposed to Biomax MR film for 21 days at −70° C. […] Protein methylation reactions were conducted as described in “Experimental Procedures,” except that homocysteine was added to the other reaction components on ice. The reactions were then incubated at 30° C. for 30 minutes. The 15% gel was exposed to Biomax MR film for 14 days at −70° C. Protein sizes were calculated by the migration of broad range protein standards (BioRad).

Chain of JBP1 (O14744 whole entry): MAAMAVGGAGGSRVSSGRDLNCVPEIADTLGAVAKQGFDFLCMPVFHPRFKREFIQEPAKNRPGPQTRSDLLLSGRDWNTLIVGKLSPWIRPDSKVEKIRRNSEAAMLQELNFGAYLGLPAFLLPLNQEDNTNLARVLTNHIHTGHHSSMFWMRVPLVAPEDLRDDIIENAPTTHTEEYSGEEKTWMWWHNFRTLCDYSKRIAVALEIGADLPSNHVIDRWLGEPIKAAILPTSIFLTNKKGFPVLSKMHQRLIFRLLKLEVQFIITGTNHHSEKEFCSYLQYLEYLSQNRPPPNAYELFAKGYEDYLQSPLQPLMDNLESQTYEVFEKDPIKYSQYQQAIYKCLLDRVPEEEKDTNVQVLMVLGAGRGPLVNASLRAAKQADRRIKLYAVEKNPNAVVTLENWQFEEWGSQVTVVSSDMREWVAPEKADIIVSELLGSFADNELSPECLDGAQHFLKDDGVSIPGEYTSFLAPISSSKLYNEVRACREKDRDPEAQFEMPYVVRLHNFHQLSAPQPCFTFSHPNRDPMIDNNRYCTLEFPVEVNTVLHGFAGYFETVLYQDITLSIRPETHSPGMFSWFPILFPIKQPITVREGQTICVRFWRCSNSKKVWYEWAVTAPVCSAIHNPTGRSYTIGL
Chain of JBP1 (Q9BQA1 whole entry partner): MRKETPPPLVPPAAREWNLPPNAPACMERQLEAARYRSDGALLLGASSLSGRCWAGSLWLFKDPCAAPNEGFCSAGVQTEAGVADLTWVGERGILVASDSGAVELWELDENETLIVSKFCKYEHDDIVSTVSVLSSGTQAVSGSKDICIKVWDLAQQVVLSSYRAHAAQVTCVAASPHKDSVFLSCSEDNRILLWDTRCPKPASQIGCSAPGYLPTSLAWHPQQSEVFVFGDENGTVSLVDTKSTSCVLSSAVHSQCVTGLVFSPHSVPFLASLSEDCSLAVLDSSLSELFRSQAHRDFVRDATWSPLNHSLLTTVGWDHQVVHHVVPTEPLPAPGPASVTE

Turning to `N[C@@H](CCS)C(=O)O` [homocysteine], in experiment [1], the “inhibition of myelin basic protein in vitro methylation by JBP1” value is “blocks”. Moreover, in experiment [2], the “inhibition of myelin basic protein in vitro methylation by Hs17p” value is “blocks”.

B1: Hs17p: yeast protein methyltransferase, homologue of Janus kinase binding protein 1, expressed by HSL7 (protein, UniProt P38274 1-827, looked up)
Protein arginine …: MHSNVFVGVKPGFNHKQHSKKSRFLENVSSHSPELPSNYDYVLLPITTPRYKEIVGQVFKDFQRQSIQNWKPLQIPEPQLQDICIPPFNVKKLDNDDTPSYIGLLSSWLELESRDPNVRDLGLKVLLNECKYARFVGINKLILAPPRDLSNLQLYGQMIYRLLQNRIVFAAPALTISISLPLYEDSDPLATWELWNTVRKQCEYHPSLTISLALPRTRTPSYVLNRWLAEPVSCLLVSSSIFASNQYDYPVLHKFNQNLILKFQKVNGDSQILGNELCVILHGMEKYANNVKGGESAYLEYINYLLKKGDKVLNSNSNHQFLLQEDSRIMPPLKPHSDNLLNSTYLTFEKDLVKYDLYESAILEALQDLAPRASAKRPLVILVAGAGRGPLVDRTFKIISMLFMDSKVSIIAIEKNPQAYLYLQKRNFDCWDNRVKLIKEDMTKWQINEPSEKRIQIDLCISELLGSFGCNELSPECLWSIEKYHSHNDTIFIPRSYSSYIAPISSPLFYQKLSQTNRSLEAPWIVHRVPYCILSSRVNEVWRFEHPMAQKDTVQDEDDFTVEFSQSSLNEFKIKHRGEIHGFIGFFSANLYNNIFLSTLPNDSTVRLKFSEETLMNTRREENLIKKCDHTPNMTSWSPIIFPLKQPISFIDDSELSVLMSRIHSDTEQKVWYEWSLESFIYLMLSNYTSAVTAASMTIPRSIVTDDTKTLAHNRHYSATTNQKLDNQIDLDQDIENEEEQGFLSNLETGWQSVQDIHGLSETAKPDHLDSINKPMFDLKSTKALEPSNELPRHEDLEEDVPEVHVRVKTSVSTLHNVCGRAFSLPL
modifications: FLAG tag
For B1, the “in vitro methylation of substrate protein” value in experiment [3] is “methylated”. Besides, the “UV crosslinking / binding of [3H]AdoMet” value in experiment [4] is reported as “binds AdoMet”.

Source of the values: US20030180927A1, “Yeast protein methyltransferase hsl7p” (priority 2003, published 2003).
